Experimental findings from ChEMBL document CHEMBL3817791, “Discovery of 4-(4-aminopyrazolo[1,5-a][1,3,5]triazin-8-yl)benzamides as novel, highly potent and selective, orally bioavailable inhibitors of Tyrosine Threonine Kinase, TTK” (Bioorg Med Chem Lett, 2016) are described below.

A short description of data set [1]: Cmax in CD-1 nude mouse at 10 mg/ml, po. In kind it is ADME, organism-based. Further details: dose 10 mg/ml, route oral. The conditions noted are these: in vivo.
Data set [2] is described as follows: Cmax in CD-1 nude mouse at 55 mg/ml, po. Type of data set: ADME, organism-based. Further details: dose 55 mg/ml, route oral. To be noted: in vivo.
For a further data set, the target named is T1, Aurora kinase A (Homo sapiens, UniProt O14965).
T1 sequence (O14965 whole entry): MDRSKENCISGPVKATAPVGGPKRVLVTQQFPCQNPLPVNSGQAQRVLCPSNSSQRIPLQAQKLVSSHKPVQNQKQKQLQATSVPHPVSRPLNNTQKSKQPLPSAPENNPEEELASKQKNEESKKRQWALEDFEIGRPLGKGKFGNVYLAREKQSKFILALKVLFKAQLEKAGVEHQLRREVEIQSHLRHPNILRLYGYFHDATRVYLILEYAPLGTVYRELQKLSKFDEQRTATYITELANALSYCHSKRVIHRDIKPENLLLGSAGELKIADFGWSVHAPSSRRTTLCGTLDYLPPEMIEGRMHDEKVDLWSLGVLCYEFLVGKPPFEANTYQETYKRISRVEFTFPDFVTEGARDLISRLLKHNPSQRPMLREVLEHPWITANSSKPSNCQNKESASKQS
Put plainly: Inhibition of full length recombinant human N-terminal His6-tagged Aurora A expressed in Sf21 cells by radiometric assay.

Data set [3] has as its target Aurora kinase B/Inner centromere protein (Homo sapiens, UniProt Q96GD4). Put plainly: Inhibition of recombinant human His-tagged Aurora B/full length recombinant human N-terminal GST-tagged INCENP (821-end residues) expressed in baculovirus infected Sf21 cells by radiometric assay.
Data set [4] in a line: Antiproliferative activity against human OVCAR3 cells. In kind it is functional. The conditions noted are these: OVCAR-3.
The test system of a further data set is HT-29. Description: Antiproliferative activity against human HT-29 cells. In kind it is functional.
Data set [5] is described as follows: Antiproliferative activity against human PA1 cells. In kind it is functional. To be noted: PA-1.
The nature of data set [6]: Cmax in Sprague-Dawley rat at 1 mg/ml, iv. In kind it is ADME, organism-based. Further details: dose 1 mg/ml, route intravenous. The conditions noted are these: in vivo.
A short description of data set [7]: AUC (0 to last) in CD-1 nude mouse at 100 mg/ml, po. To be noted: in vivo. Further details: dose 100 mg/ml, route oral, time 0 - last. Type of data set: ADME, organism-based.

Aurora kinase B/Inner centromere protein, sequence (Q96GD4 whole entry): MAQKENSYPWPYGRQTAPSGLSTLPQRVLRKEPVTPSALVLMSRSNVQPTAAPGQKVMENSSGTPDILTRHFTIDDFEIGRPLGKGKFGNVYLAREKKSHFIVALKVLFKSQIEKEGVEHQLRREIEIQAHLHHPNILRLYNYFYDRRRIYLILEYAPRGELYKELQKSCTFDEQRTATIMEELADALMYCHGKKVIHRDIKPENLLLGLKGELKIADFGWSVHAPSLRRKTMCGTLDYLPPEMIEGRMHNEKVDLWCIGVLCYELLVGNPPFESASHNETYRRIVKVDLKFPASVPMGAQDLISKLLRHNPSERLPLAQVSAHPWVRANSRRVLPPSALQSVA
Aurora kinase B/Inner centromere protein, sequence (Q9NQS7 whole entry, further chain): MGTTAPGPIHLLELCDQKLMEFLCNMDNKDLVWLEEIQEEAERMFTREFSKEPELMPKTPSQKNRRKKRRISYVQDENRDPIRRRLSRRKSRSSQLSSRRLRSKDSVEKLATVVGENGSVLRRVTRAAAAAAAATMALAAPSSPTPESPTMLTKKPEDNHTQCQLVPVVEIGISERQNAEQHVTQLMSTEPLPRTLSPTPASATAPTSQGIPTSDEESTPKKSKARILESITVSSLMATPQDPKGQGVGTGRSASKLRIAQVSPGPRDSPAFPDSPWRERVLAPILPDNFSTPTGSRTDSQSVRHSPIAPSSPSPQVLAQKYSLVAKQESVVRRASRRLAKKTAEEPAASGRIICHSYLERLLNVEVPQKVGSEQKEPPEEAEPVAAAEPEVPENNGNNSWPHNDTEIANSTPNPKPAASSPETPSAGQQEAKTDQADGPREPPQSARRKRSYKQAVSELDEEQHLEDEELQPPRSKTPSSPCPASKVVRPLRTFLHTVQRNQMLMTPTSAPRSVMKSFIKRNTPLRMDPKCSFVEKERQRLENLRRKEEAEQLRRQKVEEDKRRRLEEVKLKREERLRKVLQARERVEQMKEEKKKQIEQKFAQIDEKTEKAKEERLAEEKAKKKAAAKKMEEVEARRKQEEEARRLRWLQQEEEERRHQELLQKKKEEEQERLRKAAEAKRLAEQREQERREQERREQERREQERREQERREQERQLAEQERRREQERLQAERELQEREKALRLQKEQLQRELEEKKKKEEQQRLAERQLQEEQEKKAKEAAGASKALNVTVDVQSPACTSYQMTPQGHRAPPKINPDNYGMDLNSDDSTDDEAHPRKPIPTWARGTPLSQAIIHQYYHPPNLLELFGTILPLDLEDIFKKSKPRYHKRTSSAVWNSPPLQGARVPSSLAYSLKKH

For `Cc1cc(-c2cnn3c(NCC4CCOCC4)nc(Oc4ccccc4)nc23)ccc1C(=O)NC1CC1`, the Cmax in [1] was determined as 890 ng/mL; in data set [2] it was 7600 ng/mL; in [6], 411 ng/mL. For the same compound, the IC50 (on Aurora kinase A; in data set [3]) was over 50000 nM in each case. Also, the results for the GI50 (in data set [4]; with HT-29; in data set [5]) were 190 nM, 15 nM and 30 nM, respectively. The same compound displayed an AUC(0-t) in data set [7] of 25000 ng·h/mL.
